Data published in the CheMixHub viscosity set.
± gives the uncertainty stated by the source.

Assay: xn = mol fraction of the nth substance listed

CCCCCCCCCCCCN + C1CCCCC1
303.15 K, 101 kPa
Conditions | viscosity [mPa·s]
x2 = 0.2093 | 2.31 ± 0.025
x2 = 0.3927 | 1.948 ± 0.021
x2 = 0.5029 | 1.709 ± 0.019
x2 = 0.6032 | 1.492 ± 0.016
x2 = 0.8037 | 1.116 ± 0.012

Cc1cccc(O)c1 + C1CCCCC1
308.15 K, 101 kPa
Conditions | viscosity [mPa·s]
x1 = 0.0832 | 0.8736 ± 0.0072
x1 = 0.289 | 1.288 ± 0.01
x1 = 0.3627 | 1.541 ± 0.012
x1 = 0.4467 | 1.863 ± 0.015
x1 = 0.5201 | 2.175 ± 0.017
x1 = 0.5859 | 2.547 ± 0.021
x1 = 0.7213 | 3.745 ± 0.03
x1 = 0.8473 | 5.244 ± 0.043
x1 = 0.9032 | 6.428 ± 0.052

ClC1CCCCC1 + C1CCCCC1
viscosity [mPa·s], 101.3 kPa
Conditions | x2 = 0.095 | x2 = 0.2004 | x2 = 0.2999 | x2 = 0.3989 | x2 = 0.4989 | x2 = 0.5993 | x2 = 0.6986 | x2 = 0.8004 | x2 = 0.9006
298.15 K | 1.485 ± 0.014 | 1.394 ± 0.013 | 1.315 ± 0.012 | 1.241 ± 0.011 | 1.172 ± 0.01 | 1.106 ± 0.0096 | 1.046 ± 0.009 | 0.9893 ± 0.0085 | 0.9379 ± 0.008
313.15 K | 1.153 ± 0.011 | 1.086 ± 0.01 | 1.025 ± 0.0097 | 0.9696 ± 0.0091 | 0.9164 ± 0.0085 | 0.8667 ± 0.008 | 0.821 ± 0.0075 | 0.7771 ± 0.0071 | 0.7392 ± 0.0067

ClC1CCCCC1 + C1CCOC1
viscosity [mPa·s], 101.3 kPa
Conditions | x2 = 0.1036 | x2 = 0.2057 | x2 = 0.3029 | x2 = 0.4018 | x2 = 0.5079 | x2 = 0.6003 | x2 = 0.7026 | x2 = 0.8045 | x2 = 0.9032
298.15 K | 1.38 ± 0.009 | 1.22 ± 0.008 | 1.087 ± 0.0072 | 0.9655 ± 0.0065 | 0.8521 ± 0.0059 | 0.7631 ± 0.0054 | 0.6748 ± 0.0048 | 0.5979 ± 0.0044 | 0.5278 ± 0.004
313.15 K | 1.085 ± 0.0072 | 0.9721 ± 0.0066 | 0.8761 ± 0.006 | 0.7866 ± 0.0055 | 0.7016 ± 0.005 | 0.6344 ± 0.0046 | 0.5652 ± 0.0042 | 0.5038 ± 0.0039 | 0.4475 ± 0.0035

ClC1CCCCC1 + C1CCOCC1
viscosity [mPa·s], 101.3 kPa
Conditions | x2 = 0.1031 | x2 = 0.2 | x2 = 0.3037 | x2 = 0.4038 | x2 = 0.4996 | x2 = 0.6036 | x2 = 0.6992 | x2 = 0.8038 | x2 = 0.9034
298.15 K | 1.459 ± 0.0096 | 1.364 ± 0.0091 | 1.27 ± 0.0087 | 1.188 ± 0.0084 | 1.114 ± 0.008 | 1.04 ± 0.0077 | 0.9774 ± 0.0074 | 0.9135 ± 0.0071 | 0.8561 ± 0.0068
313.15 K | 1.141 ± 0.0077 | 1.073 ± 0.0074 | 1.002 ± 0.0071 | 0.9418 ± 0.0068 | 0.8879 ± 0.0066 | 0.8332 ± 0.0063 | 0.7853 ± 0.0061 | 0.7364 ± 0.0059 | 0.6928 ± 0.0057

Cc1cccc(O)c1 + C1COCCO1
308.15 K, 101 kPa
Conditions | viscosity [mPa·s]
x2 = 0.1 | 6.346 ± 0.076
x2 = 0.2 | 5.28 ± 0.064
x2 = 0.3 | 4.391 ± 0.054
x2 = 0.4 | 3.412 ± 0.042
x2 = 0.5 | 2.693 ± 0.033
x2 = 0.6 | 2.138 ± 0.027
x2 = 0.7 | 1.711 ± 0.021
x2 = 0.8 | 1.407 ± 0.018
x2 = 0.9 | 1.235 ± 0.016

CC(=O)c1ccc(C)cc1 + C=CC#N
308.15 K, 101 kPa
Conditions | viscosity [mPa·s]
x1 = 0.053 | 0.365 ± 0.004
x1 = 0.1107 | 0.4026 ± 0.0043
x1 = 0.1749 | 0.4516 ± 0.0047
x1 = 0.2487 | 0.511 ± 0.0052
x1 = 0.3327 | 0.5909 ± 0.0059
x1 = 0.4237 | 0.684 ± 0.0067
x1 = 0.536 | 0.8136 ± 0.0078
x1 = 0.6679 | 0.9939 ± 0.0094
x1 = 0.8181 | 1.23 ± 0.011

ClC1CCCCC1 + CC1CCCO1
viscosity [mPa·s], 101.3 kPa
Conditions | x2 = 0.0984 | x2 = 0.1994 | x2 = 0.2986 | x2 = 0.4009 | x2 = 0.4991 | x2 = 0.5995 | x2 = 0.701 | x2 = 0.802 | x2 = 0.8995
298.15 K | 1.367 ± 0.009 | 1.195 ± 0.0081 | 1.055 ± 0.0074 | 0.9325 ± 0.0067 | 0.8311 ± 0.0062 | 0.742 ± 0.0057 | 0.6638 ± 0.0053 | 0.5963 ± 0.0049 | 0.5378 ± 0.0046
313.15 K | 1.075 ± 0.0073 | 0.9535 ± 0.0067 | 0.8519 ± 0.0061 | 0.7611 ± 0.0057 | 0.6848 ± 0.0053 | 0.6167 ± 0.0049 | 0.5561 ± 0.0046 | 0.5018 ± 0.0043 | 0.4546 ± 0.004

C=Cn1cc[n+](CC(N)=O)c1.O=S(=O)([N-]S(=O)(=O)C(F)(F)F)C(F)(F)F + CC#N
viscosity [mPa·s], 100 kPa
Conditions | 298.15 K | 303.15 K | 308.15 K | 313.15 K | 318.15 K | 323.15 K
x1 = 0.1 | – | 9.97 ± 2 | 9.16 ± 1.9 | 8.17 ± 1.6 | 7.74 ± 1.6 | 7.02 ± 1.4
x1 = 0.201 | 75.29 ± 15 | 68.64 ± 14 | 59.58 ± 12 | 50.56 ± 10 | – | –
x1 = 0.3026 | – | 246.5 ± 51 | – | – | – | –
x1 = 0.4011 | 805.9 ± 180 | 683.3 ± 150 | 549.2 ± 120 | – | – | –

CC(=O)c1ccc(C)cc1 + CC#N
308.15 K, 101 kPa
Conditions | viscosity [mPa·s]
x1 = 0.0872 | 0.3857 ± 0.015
x1 = 0.1449 | 0.4411 ± 0.016
x1 = 0.2088 | 0.5094 ± 0.018
x1 = 0.2823 | 0.5871 ± 0.021
x1 = 0.3756 | 0.6989 ± 0.024
x1 = 0.4771 | 0.826 ± 0.027
x1 = 0.6125 | 1.001 ± 0.032
x1 = 0.7811 | 1.235 ± 0.039
x1 = 0.9146 | 1.454 ± 0.045

COc1ccc2cc([C@H](C)C(=O)O)ccc2c1 + CC#N
101 kPa
Conditions | viscosity [mPa·s]
297.93 K, x1 = 0.000702 | 0.3571 ± 0.0076
297.96 K, x1 = 0.000233 | 0.3546 ± 0.0075
298.01 K, x1 = 0.001151 | 0.3583 ± 0.0076
298.04 K, x1 = 0.001587 | 0.3603 ± 0.0077
298.07 K, x1 = 0.002732 | 0.364 ± 0.0077
301.61 K, x1 = 0.001151 | 0.3461 ± 0.0074
301.69 K, x1 = 0.000233 | 0.3425 ± 0.0073
301.69 K, x1 = 0.001587 | 0.3476 ± 0.0074
301.7 K, x1 = 0.000702 | 0.344 ± 0.0073
301.75 K, x1 = 0.002732 | 0.351 ± 0.0075
303.56 K, x1 = 0.001151 | 0.3398 ± 0.0072
303.58 K, x1 = 0.002732 | 0.3453 ± 0.0074
303.65 K, x1 = 0.000233 | 0.3359 ± 0.0072
303.66 K, x1 = 0.001587 | 0.342 ± 0.0073
303.69 K, x1 = 0.000702 | 0.3371 ± 0.0072
305.66 K, x1 = 0.000233 | 0.3303 ± 0.007
305.66 K, x1 = 0.001151 | 0.3329 ± 0.0071
305.7 K, x1 = 0.002732 | 0.3376 ± 0.0072
305.71 K, x1 = 0.000702 | 0.331 ± 0.0071
305.71 K, x1 = 0.001587 | 0.3347 ± 0.0071
308.62 K, x1 = 0.001151 | 0.324 ± 0.0069
308.64 K, x1 = 0.001587 | 0.3252 ± 0.0069
308.71 K, x1 = 0.000233 | 0.3206 ± 0.0068
308.75 K, x1 = 0.002732 | 0.3279 ± 0.007
308.76 K, x1 = 0.000702 | 0.322 ± 0.0069
311.62 K, x1 = 0.001151 | 0.3149 ± 0.0067
311.63 K, x1 = 0.001587 | 0.3163 ± 0.0068
311.68 K, x1 = 0.002732 | 0.3191 ± 0.0068
311.69 K, x1 = 0.000233 | 0.3119 ± 0.0067
311.72 K, x1 = 0.000702 | 0.3132 ± 0.0067

C[N+](=O)[O-] + CC#N
101 kPa
Conditions | viscosity [mPa·s]
298.15 K, x1 = 0.107 | 0.3665 ± 0.0092
298.15 K, x1 = 0.206 | 0.389 ± 0.0098
298.15 K, x1 = 0.301 | 0.4121 ± 0.01
298.15 K, x1 = 0.398 | 0.4366 ± 0.011
298.15 K, x1 = 0.502 | 0.4646 ± 0.012
298.15 K, x1 = 0.598 | 0.4917 ± 0.012
298.15 K, x1 = 0.7 | 0.5223 ± 0.013
298.15 K, x1 = 0.792 | 0.5508 ± 0.014
298.15 K, x1 = 0.895 | 0.5844 ± 0.015
298.15 K, x2 = 0.1433 | 0.569 ± 0.006
298.15 K, x2 = 0.3891 | 0.495 ± 0.006
298.15 K, x2 = 0.39 | 0.496 ± 0.005
298.15 K, x2 = 0.403 | 0.492 ± 0.005
298.15 K, x2 = 0.408 | 0.49 ± 0.005
298.15 K, x2 = 0.598 | 0.439 ± 0.005
298.15 K, x2 = 0.698 | 0.413 ± 0.005
298.15 K, x2 = 0.729 | 0.405 ± 0.004
298.15 K, x2 = 0.739 | 0.403 ± 0.004
298.15 K, x2 = 0.776 | 0.395 ± 0.005
298.15 K, x2 = 0.9346 | 0.359 ± 0.005
308.15 K, x2 = 0.1433 | 0.52 ± 0.006
308.15 K, x2 = 0.3891 | 0.454 ± 0.005
308.15 K, x2 = 0.598 | 0.404 ± 0.005
308.15 K, x2 = 0.776 | 0.364 ± 0.005
308.15 K, x2 = 0.9346 | 0.333 ± 0.005
313.15 K, x1 = 0.107 | 0.3169 ± 0.0079
313.15 K, x1 = 0.206 | 0.3355 ± 0.0084
313.15 K, x1 = 0.301 | 0.3546 ± 0.0089
313.15 K, x1 = 0.398 | 0.3751 ± 0.0094
313.15 K, x1 = 0.502 | 0.3985 ± 0.01
313.15 K, x1 = 0.598 | 0.4211 ± 0.011
313.15 K, x1 = 0.7 | 0.4465 ± 0.011
313.15 K, x1 = 0.792 | 0.4697 ± 0.012
313.15 K, x1 = 0.895 | 0.4974 ± 0.012
318.15 K, x2 = 0.1433 | 0.469 ± 0.005
318.15 K, x2 = 0.3891 | 0.411 ± 0.005
318.15 K, x2 = 0.598 | 0.367 ± 0.005
318.15 K, x2 = 0.776 | 0.333 ± 0.005
318.15 K, x2 = 0.9346 | 0.305 ± 0.004
